Assay results: patent publication US6896895B2, “Carotenoid esters, carotenoid-enriched feeds, and methods of pigmenting foods and foodstuffs” (DSM IP Assets B.V., priority 2000, dated 2005)

Columns and labels:
[1] = Carotenoid ester content in plasma, back skin and abdominal fat of broilers (HPLC); type: in vivo, broiler chickens (Ross 308, Ross 508); details: average over doses, Table 4
Method: (§1) Pigmentation efficacy was assessed in egg yolk, in the back skin of the broiler carcass, and in broiler shanks by reflectance colorimetry accompanied by visual scoring (Roche Colour Fan). The deposition of the ethyl-β-apo-8′-carotenoate (control) and the other carotenoid esters was determined in egg yolk and in the broiler back skin. In addition, the carotenoid levels in plasma and abdominal fat were measured.
(§2) The trials were carried out using chickens of the type Ross 308 (trials MC-24/98 and MC-02/99) and Ross 508 (trials MC-11/99, MC-16/99, MC-24/99, and MC-03/00) (Couvir de la Bohardière, F-49290 Saint Laurent de la Plaine). One-day old broiler chickens, separated by sex, were divided by weight into experimental groups of ten animals each and reared in floor pens littered with wood shavings. The chickens were fed a low carotenoid basal grower diet until day 22 (trials MC-24/98, MC-02/99, and MC-11/99) or until day 15 (trials MC-16/99, MC-24/99, and MC-03/00). The low carotenoid basal grower diet contained less than 2 mg total xanthophylls per kg of feed, and its composition is described in Table 2. For the subsequent experimental period of three weeks, the birds received the basal diet supplemented with an appropriate pigment. The feed was given in the form of crumbled pellets during the first week and as pellets thereafter. The animals had unrestricted access to feed and water. A given treatment involved one group of male and one group of female chickens. Each group of chickens was weighed at day 22 (trials MC-24/98, MC-02/99, and MC-11/99) or day 15 (trials MC-16/99, MC-24/99, and MC-03/00) and on day 43. On day 42, five chickens per group were selected at random, labelled, and blood samples were taken from the jugular vein. At the end of the experiment (day 44) the animals were slaughtered in a commercial slaughterhouse (Freyburger, Dannemarie, France). The following day, the color of the skin (hind back of carcasses) and the shanks of the labelled chicken were measured by reflectance colorimetry (Minolta CR 200 apparatus, CIE-Lab system). Samples of the dorsal skin and abdominal fat were obtained, pooled for each experimental group, and the carotenoid concentration was determined. The concentration of carotenoids in feed, plasma, skin, and abdominal fat was determined by standard procedures as described after Tables 1 and 2.
The content of the various carotenoid esters in feed was determined according to the method of Schierle, et al. (J. Schierle , N. Faccin, V. Riegert, Analytical Methods for Vitamins and Carotenoids in Feed, Revised supplement: Determination of Stabilized Apocarotenoic Ester and Canthaxanthin in Premixes and Feeds, Roche publication no. 50771 (1995), publicly available from. F. Hoffmann-La Roche Ltd., CH-4070 Basel). This method was modified in that the mobile phase of the normal-phase HPLC contained 0.5% instead of 7% acetone in n-hexane, improving the separation of the E/Z-isomers of the carotenoid esters. Peaks were related to all-E- and Z-isomers of the various carotenoid esters by chromatography of heat-isomerized solutions of the respective reference substances in n-hexane. The HPLC system was calibrated with the all-E-isomer of ethyl β-apo-8′-carotenoate. The response factor of the various derivatives was deduced from that of ethyl β-apo-8′-carotenoate taking into account the respective molecular weight. The content of the Z-isomer fractions was calculated based on the response of the all-E-isomer and using a correction factor of 1.4 to account for the lower specific absorbance of the Z-isomers.
(§3) The HPLC-system for in-feed analysis was also used to quantify the carotenoid esters in egg yolk, broiler tissues, and broiler plasma, but the extraction procedure was different for the various matrices.
For plasma extraction, 1.0 g of the well-mixed plasma sample was introduced into a 10 ml test tube with 1.0 ml of demineralized water and 4.0 ml of ethanol, and the contents mixed on a Vortex shaker. […]

[2] = tested on: skin and shanks of broilers; assay: Reflectance colorimetry and visual classification of skin and shanks of broilers; type: in vivo, broiler chickens (Ross 308, Ross 508); set-up: key to Shanks Visual Classification / Skin Visual Classification: −; (+); +; ++ = good color; o = orange; details: dry carcasses, average over doses, Table 6
Method: as §1, §2
The color of broiler skin and shanks was measured using a tristimulus Minolta CR-300 Chromameter with diffuse D65-illumination and a 0° viewing angle. The color of the skin was read at three different points on the back of the dry broiler carcasses and average values of the triple measurements were recorded. The color of shanks was measured using single measurements at the ball between the toes.
(§4) The color data were expressed as CIE L*a*b*-values including h*(hue) and C* (chroma). The values given in the tables per treatment and trial represent averages of color measurements of four egg yolk pools, ten broiler back skins, or ten broiler shanks (5 males and 5 females).

[3] = Carotenoid ester content and deposition rate in egg yolk of laying hens (HPLC); type: in vivo, laying hens (ISA Brown); details: egg yolk; for Deposition Rate Target Values % of Controls / Ethyl β-apo-8′-carotenoate Equivalents % of Controls: Table 8; for Deposition Rate % of Controls: Table 10
Method: as §1
Each year in February the pigmentation trials are started with a new flock of layers.
(§5) Preceding the trials the hens were fed a low carotenoid basal diet (produced at the CRNA) without carotenoid supplementation for at least 28 days. During the trials, the control group received the low carotenoid basal diet containing less than 2 mg total xanthophylls per kg of feed. The other animals were fed this diet supplemented with the appropriate pigments for three weeks. The diet was given to the animals ad libitum in mash form. The hens had free access to tap water.
Peaks were related to all-E- and Z-isomers of the various carotenoid esters by chromatography of heat-isomerized solutions of the respective reference substances in n-hexane. The HPLC system was calibrated with the all-E-isomer of ethyl β-apo-8′-carotenoate. The response factor of the various derivatives was deduced from that of ethyl β-apo-8′-carotenoate taking into account the respective molecular weight. The content of the Z-isomer fractions was calculated based on the response of the all-E-isomer and using a correction factor of 1.4 to account for the lower specific absorbance of the Z-isomers.
as §3
For the extraction of egg yolk, 10 g of pooled and homogenised yolk were mixed with 10 ml of demineralized water using a dispersion instrument (Polytron). 1.0 g of diluted egg yolk was introduced into a 10 ml test tube with 1.0 ml of demineralized water and 2.0 ml of ethanol, and the contents were mixed on a Vortex shaker. After addition of 4.0 ml of n-hexane, the mixture was further treated as described for plasma.

[4] = tested on: egg yolk; assay: Egg yolk colour: reflectance colorimetry and Roche Yolk Colour Fan; type: in vivo, laying hens (ISA Brown); details: egg yolk, laying hens, 5.0 mg/kg feed
Method: as §1
The trials were carried out following the standard experimental design used for egg yolk pigmentation trials at the Roche Research Center for Animal Nutrition (CRNA, F-68305 Village-Neuf, France). Each year in February the pigmentation trials are started with a new flock of layers. At the beginning of the trials the age of the laying hens (192 birds, type ‘ISA Brown’) were as follows:
as §5, with “water. Beside the unsupplemented control treatment, treatments were carried out involving the provision of supplemented feed, the results of these treatments being presented in Tables 7-9.” for “water.”
Egg yolk color was assessed as described by Steinberg, et al. (Arch. Geflügelk 64 (4), 180-187 (2000)). The yolks were manually separated from the whites of the eggs. The isolated yolks of three to six eggs were combined, weighed, and stirred with a glass rod until the color appeared homogeneous. The color hue was visually scored using the Roche Yolk Colour Fan (RYCF, version 1993). An aliquot of the pooled egg yolks was transferred into a glass cuvette yielding an approximately 2 cm thick layer. The color was then measured by means of a Dr. Lange Xeno Color LS 100 spectro-colorimeter with diffuse D65-illumination and a 8° viewing angle.
as §4

Row | SMILES | Analytical Content as Equivalent of Ethyl β-apo-8′-carotenoate in % of control Fat [1] [%] | Analytical Content as Equivalent of Ethyl β-apo-8′-carotenoate in % of control Plasma [1] [%] | Analytical Content as Equivalent of Ethyl β-apo-8′-carotenoate in % of control Skin [1] [%] | Deposition Rate Target Values % of Controls ([3]; trial H-25/99, 5.0 mg/kg feed) [%] | Ethyl β-apo-8′-carotenoate Equivalents % of Controls ([3]; trial H-25/99, 5.0 mg/kg feed) [%] | Deposition Rate % of Controls ([3]; trial H-25/99, 5.0 mg/kg feed) [%] | Shanks Chroma C*ab % of Controls [2] [%] | Shanks Color Hue h*ab % of Controls [2] [%] | Shanks Visual Classification [2] | Skin Chroma C*ab % of Controls [2] [%] | Skin Color Hue h*ab % of Controls [2] [%] | Skin Visual Classification [2] | Color Fan Value % of Controls ([4]; trial H-25/99, Table 8) [%] | Chroma C*ab % of Controls ([4]; trial H-25/99, Table 10) [%] | Color Fan Value % of Controls ([4]; trial H-25/99, Table 10) [%] | Color Hue h*ab % of Controls ([4]; trial H-25/99, Table 10) [%] | further results
1 | CC(C=CC=C(C)C=CC1=C(C)CCCC1(C)C)=CC=CC=C(C)C=CC=C(C)C(=O)OCCC(C)C [(6), isoamyl beta-apo-8′-carotenoate] | 35 | 62 | 38 | – | – | – | 86 | 101 | (+) | 89 | 99 | (+) | – | – | – | – | Deposition Rate Target Values % of Controls ([3]; trial H-18/99, 5.0 mg/kg feed): 90%; Ethyl β-apo-8′-carotenoate Equivalents % of Controls ([3]; trial H-18/99, 5.0 mg/kg feed): 80%; Deposition Rate % of Controls ([3]; trial H-18/99, 5.0 mg/kg feed): 90%; Color Fan Value % of Controls ([4]; trial H-18/99, Table 8): 116%; Chroma C*ab % of Controls ([4]; trial H-18/99, Table 10): 105%; Color Fan Value % of Controls ([4]; trial H-18/99, Table 10): 116%; Color Hue h*ab % of Controls ([4]; trial H-18/99, Table 10): 101%
2 | CCCC(C)COC(=O)C(C)=CC=CC(C)=CC=CC=C(C)C=CC=C(C)C=CC1=C(C)CCCC1(C)C (stereo not drawn) [(11), 2-methyl-1-pentyl beta-apo-8′-carotenoate] | 50 | 59 | 69 | 112 | 96 | 112 | 92 | 101 | (+) | 87 | 95 | + | 116 | 101 | 116 | 103 | –

The next lines start with results.

Row | Analytical Content as Equivalent of Ethyl β-apo-8′-carotenoate in % of control Fat [1] [%] | Analytical Content as Equivalent of Ethyl β-apo-8′-carotenoate in % of control Plasma [1] [%] | Analytical Content as Equivalent of Ethyl β-apo-8′-carotenoate in % of control Skin [1] [%] | Deposition Rate Target Values % of Controls ([3]; trial H-25/99, 5.0 mg/kg feed) [%] | Ethyl β-apo-8′-carotenoate Equivalents % of Controls ([3]; trial H-25/99, 5.0 mg/kg feed) [%] | Deposition Rate % of Controls ([3]; trial H-25/99, 5.0 mg/kg feed) [%] | SMILES | Shanks Chroma C*ab % of Controls [2] [%] | Shanks Color Hue h*ab % of Controls [2] [%] | Shanks Visual Classification [2] | Skin Chroma C*ab % of Controls [2] [%] | Skin Color Hue h*ab % of Controls [2] [%] | Skin Visual Classification [2] | Color Fan Value % of Controls ([4]; trial H-25/99, Table 8) [%] | Chroma C*ab % of Controls ([4]; trial H-25/99, Table 10) [%] | Color Fan Value % of Controls ([4]; trial H-25/99, Table 10) [%] | Color Hue h*ab % of Controls ([4]; trial H-25/99, Table 10) [%] | further results
3 | 45 | 62 | 40 | 95 | 86 | 95 | CCC(C)COC(=O)C(C)=CC=CC(C)=CC=CC=C(C)C=CC=C(C)C=CC1=C(C)CCCC1(C)C (stereo not drawn) [(7), 2-methyl-butyl beta-apo-8′-carotenoate] | 85 | 101 | (+) | 80 | 94 | (+) | 108 | 87 | 108 | 106 | –
4 | 62 | 78 | 76 | 89 | 81 | 89 | CC(C=CC=C(C)C=CC1=C(C)CCCC1(C)C)=CC=CC=C(C)C=CC=C(C)C(=O)OCC(C)(C)C [(8), 2,2-dimethylpropyl beta-apo-8′-carotenoate] | 98 | 101 | (+) | 98 | 100 | (+) | 108 | 94 | 108 | 101 | –
5 | 45 | 59 | 55 | 87 | 77 | 87 | CCC(CC)COC(=O)C(C)=CC=CC(C)=CC=CC=C(C)C=CC=C(C)C=CC1=C(C)CCCC1(C)C [(9), 2-ethyl-1-butyl beta-apo-8′-carotenoate] | 92 | 101 | (+) | 82 | 101 | + | 101 | 99 | 101 | 92 | –
